Measurements reported in patent US8377943B2, “2,4-diaminopyrimidine derivates as PTK2-inhibitors for the treatment of abnormal cell growth” (Boehringer Ingelheim International GmbH, priority 2008, dated 2013).

What was measured:
PTK2 = molecular target: T1, PTK2 (Homo sapiens, UniProt Q05397); assay: PTK2 Enzyme Test (DELFIA assay, poly-Glu-Tyr substrate); assay type: biochemical; conditions: active PTK2 enzyme, 50 μM ATP in ATP Mix, 1 h pre-incubation
T1 construct: purchased Invitrogen PV3832
Description: This test uses active PTK2 enzyme (Invitrogen Code PV3832) and poly-Glu-Tyr (4:1, Sigma P-0275) as the kinase substrate. The kinase activity is detected by means of the phosphorylation of the substrate in a DELFIA™ assay. The phosphorylated substrate is detected with the Europium-labelled phosphotyrosine antibody PY20 (Perkin Elmer, No.: AD0038).
In order to determine concentration-activity curves with PTK2-inhibitors the compounds are serially diluted in 10% DMSO/H2O and 10 μL of each dilution are dispensed per well in a 96-well microtitre plate (clear U-shaped base plate, Greiner No. 650101) (the inhibitors are tested in duplicates) and mixed with 10 μL/well of PTK2 kinase (0.01 μg/well). PTK2 kinase is diluted accordingly beforehand with kinase dilution buffer (20 mM TRIS/HCl pH 7.5, 0.1 mM EDTA, 0.1 mM EGTA, 0.286 mM sodium orthovanadate, 10% glycerol with the addition of freshly prepared BSA (fraction V 1 mg/mL) and DTT (1 mM)). The test compound and the PTK2 kinase are pre-incubated for 1 h at RT and shaken at 500 rpm. Then 20 μL ATP Mix (30 mM TRIS/HCl pH 7.5, 0.02% Brij, 0.2 mM sodium orthovanadate, 10 mM magnesium acetate, 0.1 mM EGTA, 1× Phosphatase Inhibitor Cocktail 1 (Sigma, No.: P2850), 50 μM ATP (Sigma, No.: A3377; 15 mM stock solution)) are added. The reaction is started by the addition of 10 μL/well of poly (Glu,Tyr) substrate (25 μg/well poly (Glu,Tyr), 0.05 μg/well biotinylated poly (Glu,Tyr) dissolved in 250 mM TRIS/HCl pH 7.5, 9 mM DTT)—the final concentration of DMSO is 2%. After 1 h kinase reaction (the plates are shaken at 500 rpm), the reaction is stopped by the addition of 12 μL/well of 100 mM EDTA, pH 8. And shaken for a further 5 min at RT (500 U/min).
55 μL of the reaction mixture are transferred into a streptavidin plate (Strepta Well High Bind (transparent, 96-well) made by Roche, No.: 11989685001) and incubated for 1 h at RT (shaking at 500 rpm). Then the microtitre plate is washed three times with 200 μL/well D-PBS (Invitrogen, No.:14190). 100 μL of 1:2000 diluted DELFIA Eu-N1 Anti-Phosphotyrosine PY20 antibody (Perkin Elmer, No.: AD0038, 1:2000 diluted in DELFIA test buffer (Perkin Elmer, No.: 1244-111)) is then added and it is incubated for 1 h at RT (shaking at 500 rpm). Then the plate is washed three times with 200 μL/well DELFIA washing buffer (Perkin Elmer, No.: 1244-114), 200 μL/well strengthening solution (Perkin Elmer, No.: 1244-105) is added and the whole is incubated for 10 min at RT (shaking at 300 rpm).
The time-delayed europium fluorescence is then measured in a microtitre plate reader (Victor, Perkin Elmer). The positive control consists of wells that contain solvent (2% DMSO in test buffer) and display uninhibited kinase activity. Wells that contain test buffer instead of enzyme act as a control for the background kinase activity.
The IC50 values are determined from concentration-activity analyses by iterative calculation using a sigmoidal curve analysis algorithm (FIFTY, based on GraphPAD Prism Version 3.03) with a variable Hill coefficient.

[1] = molecular target: T2, PTK2-phosphorylation at tyrosine 397 (pY397) (Homo sapiens, UniProt Q05397); assay: Phospho-PTK2 (pY397) Assay in PC-3 cells; assay type: cell-based; conditions: PC-3 prostate carcinoma cells, 2 h incubation; read-out: PC3pPTK2 Y397 EC50
T2 construct: endogenous in cells; host or cells: PC-3 (ATCC CRL-1435)
Description: This cellular test is used to determine the influence of PTK2-inhibitors on the state of the PTK2-phosphorylation at tyrosine 397 (pY397).
PC-3 cells (prostate carcinoma, ATCC CRL-1435) are grown in cell culture flasks (175 cm^2) with F12 Kaighn's Medium (Gibco, No.: 21127) with the addition of 10% foetal calf serum (Invitrogen, No.: 16000-044). The cultures are incubated in the incubator at 37° C. and 5% CO2 and run twice a week.
For the test, 2×10^4 cells pro well/[…] are plated out in 96-well microtitre plates (Costar, No.: 3598) and incubated overnight in the incubator at 37° C. and 5% CO2. The test compounds (10 μL from serial dilution) are added the next day. The concentration of the test compounds usually covers a range of 50 μM and 0.8 nM. The test compounds (stock solution: 10 mM in 100% DMSO) are diluted in medium/medium 10% DMSO such that the final concentration is 1% DMSO. The cells are then incubated in the incubator at 37° C. and 5% CO2 for 2 h. Then the culture supernatant is removed and the cells are fixed with 150 μL 4% formaldehyde in D-PBS for 20 min at RT. The cell lawn is washed five times with 200 μL 0.1% Triton X-100 in D-PBS for 5 min in each case and then incubated for 90 min with blocking buffer (5% skimmed milk powder (Maresi Fixmilch) in TBST (25 mM Tris/HCl, pH 8.0, 150 mM NaCl, 0.05% Tween 20). The blocking buffer is replaced by 50 μL of the first antibody anti-phospho PTK2 [pY397] rabbit monoclonal (Invitrogen/Biosource, No.: 44-625G), which is diluted 1:200 in blocking buffer. For control purposes, alternatively a PTK2 [total] antibody (clone 4.47 mouse monoclonal, Upstate, No.: 05-537), diluted 1:400 in blocking buffer is used. This incubation is carried out at 4° C. overnight. Then the cell lawn is washed five times with 100 μL of 0.1% Tween in D-PBS for 5 min in each case and 50 μL/well of second antibody are added. In order to detect bound phospho-PTK2 [pY397] antibody a goat-anti-rabbit antibody is used which is coupled with horseradish peroxidase (Dako, No.: P0448; 1:500 dilution in blocking buffer). In order to detect bound PTK2 [total]-antibodies a rabbit-anti-mouse antibody is used, which is also coupled with horseradish peroxidase (Dako, No.: PO161; 1:1000 dilution in blocking buffer). This incubation is carried out for 1 h at RT with gentle shaking. The cell lawn is then again washed five times with 100 μL of 0.1% Tween in D-PBS for 5 min in each case. […] The EC50 values are determined from concentration-activity analyses by iterative calculation with the aid of a sigmoidal curve analysis algorithm (FIFTY, based on GraphPAD Prism Version 3.03) with a variable Hill coefficient.

T2 sequence (Q05397 whole entry): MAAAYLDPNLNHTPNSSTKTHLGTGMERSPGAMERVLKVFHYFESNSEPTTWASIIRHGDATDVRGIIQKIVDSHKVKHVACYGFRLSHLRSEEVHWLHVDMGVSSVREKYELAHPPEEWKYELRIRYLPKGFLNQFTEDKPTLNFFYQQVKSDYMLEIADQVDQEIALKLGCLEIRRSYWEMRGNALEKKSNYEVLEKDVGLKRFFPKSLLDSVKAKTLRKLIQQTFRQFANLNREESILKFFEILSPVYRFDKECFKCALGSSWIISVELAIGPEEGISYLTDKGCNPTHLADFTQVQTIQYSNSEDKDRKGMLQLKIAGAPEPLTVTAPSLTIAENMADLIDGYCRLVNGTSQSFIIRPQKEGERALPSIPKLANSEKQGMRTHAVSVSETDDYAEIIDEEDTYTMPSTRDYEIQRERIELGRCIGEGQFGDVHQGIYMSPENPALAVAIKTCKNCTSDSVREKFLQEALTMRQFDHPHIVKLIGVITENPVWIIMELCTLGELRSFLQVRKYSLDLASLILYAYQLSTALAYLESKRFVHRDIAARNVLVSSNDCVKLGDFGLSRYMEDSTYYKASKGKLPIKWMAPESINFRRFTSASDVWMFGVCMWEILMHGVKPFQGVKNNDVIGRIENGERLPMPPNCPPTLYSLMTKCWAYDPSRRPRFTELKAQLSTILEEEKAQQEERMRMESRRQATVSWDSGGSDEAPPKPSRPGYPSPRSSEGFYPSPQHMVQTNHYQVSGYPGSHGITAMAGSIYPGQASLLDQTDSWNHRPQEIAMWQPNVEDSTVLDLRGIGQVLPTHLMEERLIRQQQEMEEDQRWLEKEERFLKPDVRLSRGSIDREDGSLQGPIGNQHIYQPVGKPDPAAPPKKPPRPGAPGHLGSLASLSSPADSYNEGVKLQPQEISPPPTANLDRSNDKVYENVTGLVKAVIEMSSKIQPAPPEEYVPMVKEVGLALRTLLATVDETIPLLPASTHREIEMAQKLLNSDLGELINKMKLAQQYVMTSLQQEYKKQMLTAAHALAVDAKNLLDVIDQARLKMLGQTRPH
T1 sequence (Q05397 whole entry): as above

For `COc1cc(CNC2CCN(C)CC2)ccc1Nc1ncc(C(F)(F)F)c(NCc2ccc(C)cc2N(C)S(C)(=O)=O)n1` [Example 59], the IC50 (PTK2) was 3 nM and the EC50 [1] was 0.59 nM.

With `COc1cc(C(=O)NC2CCOCC2)ccc1Nc1ncc(C(F)(F)F)c(NCc2ccc(C)cc2N(C)S(C)(=O)=O)n1` [Example 60] the IC50 (PTK2) was 4 nM and the EC50 [1] was 0.6 nM.

`COc1cc(CNC2CCC2)ccc1Nc1ncc(C(F)(F)F)c(NCc2ccc(C)cc2N(C)S(C)(=O)=O)n1` [Example 61] showed an IC50 (PTK2) of 2 nM and an EC50 [1] of 0.6 nM.

Molecule `COc1cc(CNC2CCCC2)ccc1Nc1ncc(C(F)(F)F)c(NCc2ccc(C)cc2N(C)S(C)(=O)=O)n1` [Example 63] has an IC50 (PTK2) of 3 nM and an EC50 [1] of 0.63 nM.

`COc1cc(C(=O)NC2CCOC2)ccc1Nc1ncc(C(F)(F)F)c(NCc2ccc(C)cc2N(C)S(C)(=O)=O)n1` (stereo not shown) [Example 64] was tested, and the IC50 (PTK2) was 3 nM and the EC50 [1] was 0.67 nM.

In the case of `COc1cc(C(=O)N[C@H]2CC[C@@H]3[C@@H](CCN3C)C2)ccc1Nc1ncc(C(F)(F)F)c(NCc2ccc(C)cc2N(C)S(C)(=O)=O)n1` [Example 65], the IC50 (PTK2) is reported as 4 nM and the EC50 [1] is reported as 0.67 nM.

Work on `CCNCc1ccc(Nc2ncc(C(F)(F)F)c(NCc3ccc(C)cc3N(C)S(C)(=O)=O)n2)c(OC)c1` [Example 66] yielded an IC50 (PTK2) of 1 nM and an EC50 [1] of 0.7 nM.

In the case of `COc1cc(CNCc2ccccc2)ccc1Nc1ncc(C(F)(F)F)c(NCc2ccc(C)cc2N(C)S(C)(=O)=O)n1` [Example 67], the IC50 (PTK2) is reported as 7 nM and the EC50 [1] is reported as 0.7 nM.

In the case of `COc1cc(NC(C)=O)c(C)cc1Nc1ncc(C(F)(F)F)c(NCc2ccc(C)cc2N(C)S(C)(=O)=O)n1` [Example 68], the IC50 (PTK2) is reported as 2 nM and the EC50 [1] is reported as 0.72 nM.

In the case of `CNC(=O)c1ccc(Nc2ncc(C(F)(F)F)c(NCc3ccc(C)cc3N(C)S(C)(=O)=O)n2)c(OC)c1` [Example 69], the IC50 (PTK2) is reported as 1 nM and the EC50 [1] is reported as 0.74 nM.

`COc1cc(C(=O)NCC2CCCO2)ccc1Nc1ncc(C(F)(F)F)c(NCc2ccc(C)cc2N(C)S(C)(=O)=O)n1` (stereo not shown) [Example 70] gave an IC50 (PTK2) of 4 nM and an EC50 [1] of 0.74 nM.

With `COc1cc(C(=O)NC2CC(N3CCOCC3)C2)ccc1Nc1ncc(C(F)(F)F)c(NCc2ccc(C)cc2N(C)S(C)(=O)=O)n1` (stereo not shown) [Example 71] the IC50 (PTK2) was 3 nM and the EC50 [1] was 0.74 nM.

`COc1cc(CNC2CC2)ccc1Nc1ncc(C(F)(F)F)c(NCc2ccc(C)cc2N(C)S(C)(=O)=O)n1` [Example 72] showed an IC50 (PTK2) of 3 nM and an EC50 [1] of 0.75 nM.

With `COc1cc(C(=O)NC2CCN(C)CC2)ccc1Nc1ncc(C(F)(F)F)c(NCc2ccc(C)cc2N(C)S(C)(=O)=O)n1` [Example 73, 4-{4-[2-(methanesulphonyl-methyl-amino)-4-methyl-benzylamino]-5-trifluoromethyl-pyrimidin-2-ylamino}-3-methoxy-N-(1-methyl-piperidin-4-yl)-benzamide] the IC50 (PTK2) was 1 nM and the EC50 [1] was 0.77 nM.

With `COc1cc(C(=O)N[C@@H]2CN3CCC2CC3)ccc1Nc1ncc(C(F)(F)F)c(NCc2ccc(C)cc2N(C)S(C)(=O)=O)n1` [Example 74] the IC50 (PTK2) was 3 nM and the EC50 [1] was 0.8 nM.

`COc1cc(N2CCN(C(C)C)CC2)ccc1Nc1ncc(C(F)(F)F)c(NCc2ccc(F)cc2N(C)S(C)(=O)=O)n1` [Example 75] gave an IC50 (PTK2) of 1 nM and an EC50 [1] of 0.84 nM.

`COc1cc(C(=O)N[C@H]2CC[C@H](N3CCOCC3)CC2)ccc1Nc1ncc(C(F)(F)F)c(NCc2ccc(C)cc2N(C)S(C)(=O)=O)n1` [Example 76] was tested, and the IC50 (PTK2) was 2 nM and the EC50 [1] was 0.88 nM.

With `COc1cc(C(=O)NC2CCN(C)CC2)c(Cl)cc1Nc1ncc(C(F)(F)F)c(NCc2ccc(C)cc2N(C)S(C)(=O)=O)n1` [Example 78] the IC50 (PTK2) was 4 nM and the EC50 [1] was 0.93 nM.

With `COc1cc(N2CCN(C)CC2)ccc1Nc1ncc(C(F)(F)F)c(NCc2ccc(C)cc2N(C)S(C)(=O)=O)n1` [Example 79] the IC50 (PTK2) was 2 nM and the EC50 [1] was 1 nM.

Work on `Cc1ccc(CNc2nc(Nc3ccc(C(=O)NC4CCN(C)CC4)cc3C)ncc2C(F)(F)F)c(N(C)S(C)(=O)=O)c1` [Example 80] yielded an IC50 (PTK2) of 0.98 nM and an EC50 [1] of 1 nM.

`CNC(=O)c1ccc(Nc2ncc(C(F)(F)F)c(NCc3ccc(OC)cc3N(C)S(C)(=O)=O)n2)c(OC)c1` [Example 81] gave an IC50 (PTK2) of 1 nM and an EC50 [1] of 1 nM.

Work on `COc1cc(N2CCN(CC(=O)N(C)C)CC2)ccc1Nc1ncc(C(F)(F)F)c(NCc2ccc(F)cc2N(C)S(C)(=O)=O)n1` [Example 82] yielded an IC50 (PTK2) of 2 nM and an EC50 [1] of 1 nM.

Molecule `COc1cc(C(=O)NC2CCNCC2)ccc1Nc1ncc(C(F)(F)F)c(NCc2ccc(C)cc2N(C)S(C)(=O)=O)n1` [Example 83] has an IC50 (PTK2) of 2 nM and an EC50 [1] of 1 nM.

`COc1cc(C(=O)NC2CCC(N3CCOCC3)CC2)c(C)cc1Nc1ncc(C(F)(F)F)c(NCc2ccc(C)cc2N(C)S(C)(=O)=O)n1` (stereo not shown) [Example 84] was tested, and the IC50 (PTK2) was 3 nM and the EC50 [1] was 1 nM.

Work on `COc1cc(C(=O)N[C@@H]2CCCN(CC3CC3)C2)ccc1Nc1ncc(C(F)(F)F)c(NCc2ccc(C)cc2N(C)S(C)(=O)=O)n1` [Example 85] yielded an IC50 (PTK2) of 3 nM and an EC50 [1] of 1 nM.

`COc1cc(C(=O)N[C@@H]2CCCN(C3CCC3)C2)ccc1Nc1ncc(C(F)(F)F)c(NCc2ccc(C)cc2N(C)S(C)(=O)=O)n1` [Example 86] showed an IC50 (PTK2) of 3 nM and an EC50 [1] of 1 nM.

Work on `COc1ccc(CNc2nc(Nc3ccc(NC(C)=O)c(OC)c3)ncc2C(F)(F)F)c(N(C)S(C)(=O)=O)c1` [Example 87] yielded an IC50 (PTK2) of 1 nM and an EC50 [1] of 1 nM.

`COc1cc(CNCCN(C)C)ccc1Nc1ncc(C(F)(F)F)c(NCc2ccc(C)cc2N(C)S(C)(=O)=O)n1` [Example 88] was tested, and the IC50 (PTK2) was 4 nM and the EC50 [1] was 1 nM.

`COc1cc(CNC(C)C)ccc1Nc1ncc(C(F)(F)F)c(NCc2ccc(C)cc2N(C)S(C)(=O)=O)n1` [Example 89] gave an IC50 (PTK2) of 2 nM and an EC50 [1] of 1 nM.
